Experimental findings from patent publication US12043617B2, “4-(N-methyl) aminopiperidine myricetin derivative containing dithiocarbamate, preparation method and application” (Guizhou University, priority 2019, dated 2024) are described below.

The assay concerns SMMC-7721 cells. The assay can be described thus: MTT colorimetry, inhibition of hepatocellular carcinoma SMMC-7721 cell activity. It counts as cell-based. The following applies: Homo sapiens, 48 hours, read-out: Inhibition Rate (%). How it is done:
Test for Inhibition of Cancer Cell Activity by Compound of Embodiment 19 (Taking Hepatocellular Carcinoma SMMC-7721 Cells as an embodiment):
SMMC-7721 cells are cultured in DMEM high sugar medium containing 10% fetal bovine serum in a saturated humidity incubator at 37° C. and 5% CO2. The culture medium is changed every two days and passaged every 3-4 days. The drug is prepared as 1 mmol/L and 10 mmol/L storage solution using DMSO as solvent, when used, the concentration is diluted into 1 μmol/L and 10 μmol/L with culture medium, using DMSO as negative control group and gemcitabine as positive control group to act on cells in logarithmic growth phase.
Cells in logarithmic growth phase are digested with 0.025% pancreatin, and then digested with DMEM high sugar medium containing 10% fetal bovine serum. After centrifugation, the cells are suspended in DMEM high sugar medium containing 10% fetal bovine serum. Take a 96-well plate and add 200 μL of sterile water seal to each hole around the plate to ensure saturated humidity in the experiment. In the middle six rows, 100 μL of cell suspension are added respectively, and the cell concentration is about 3.5×10^4 cells/mL. The last row is blank control group, and the same volume of complete culture medium is added. In 37° C., 5% CO2 saturated humidity incubator culture for 24 hours, cells completely adhere to the wall, remove the culture medium, add complete culture medium containing different drugs, 200 μL per hole. The blank control group is added with 200 μL of complete culture medium, and the culture is continued. After 24 hours, the drug effect is observed and photographed under an inverted microscope. After 48 hours, the drug effect is also observed and photographed under an inverted microscope. Then the supernatant is removed. 100 μL of 0.5 mg/mL MTT solution is added to each well. After 4 hours of continuous culture, purple crystal formazan is generated. 100 μL of 10% SDS is added to each well. After 12 hours of culture in an incubator at 37° C., the OD value is measured with an enzyme reader at A571 wavelength. Repeat 6 wells for each sample concentration, and calculate the inhibition rate by taking the average value.

Turning to `Nc1ccn([C@@H]2O[C@H](CO)[C@@H](O)C2(F)F)c(=O)n1` [Gencitabine, gemcitabine, reference compound], the inhibition at 1 µM (1 μmol/L) worked out at 55.7 ± 2.26%. Moreover, where the note is “10 μmol/L”, the inhibition at 10 µM was 63.5 ± 2.18%.
